# Where “and” joins values, the source holds several entries; their conditions need not be identical. Equal values may be shown once. Inconclusive results and toxic doses are left out.
# Tested on: BDF1 mice, P388 leukemia ip, median survival T/C
# Experiment: NCI In Vivo Anticancer Drug Screen. Data for tumor model P388 Leukemia (intraperitoneal) in B6D2F1 (BDF1) mice
# Settings: endpoint: median survival time, higher = longer survival
# Summary of the method: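 T/C = treated-group survival ÷ vehicle-control survival; tumour transplanted into mice before dosing.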
# [1] = dose: 100.0 mg/kg/injection, schedule: Q01DX001 (ip), vehicle: Klucel (hydroxypropylcellulose) (HPC)
# [2] = dose: 200.0 mg/kg/injection, schedule: Q01DX001 (ip), vehicle: Klucel (hydroxypropylcellulose) (HPC)
# [3] = dose: 400.0 mg/kg/injection, schedule: Q01DX001 (ip), vehicle: Klucel (hydroxypropylcellulose) (HPC)
# [4] = dose: 12.5 mg/kg/injection, schedule: Q01DX009 (ip), vehicle: Klucel (hydroxypropylcellulose) (HPC)
# [5] = dose: 25.0 mg/kg/injection, schedule: Q01DX009 (ip), vehicle: Klucel (hydroxypropylcellulose) (HPC)
# [6] = dose: 50.0 mg/kg/injection, schedule: Q01DX009 (ip), vehicle: saline with Tween-80
# [7] = dose: 100.0 mg/kg/injection, schedule: Q01DX009 (ip), vehicle: saline with Tween-80
# [8] = dose: 200.0 mg/kg/injection, schedule: Q01DX009 (ip), vehicle: saline with Tween-80
# [9] = dose: 100.0 mg/kg/injection, schedule: Q04DX003 (ip), vehicle: saline with Tween-80
# [10] = dose: 200.0 mg/kg/injection, schedule: Q04DX003 (ip), vehicle: saline with Tween-80
# [11] = dose: 400.0 mg/kg/injection, schedule: Q04DX003 (ip), vehicle: saline with Tween-80
# [12] = dose: 25.0 mg/kg/injection, schedule: Q01DX009 (ip), vehicle: saline with Tween-80
# [13] = dose: 50.0 mg/kg/injection, schedule: Q01DX009 (ip), vehicle: saline
# [14] = dose: 100.0 mg/kg/injection, schedule: Q01DX009 (ip), vehicle: saline
# [15] = dose: 200.0 mg/kg/injection, schedule: Q01DX009 (ip), vehicle: saline
smiles,measurement,setting,value
OC1(O)COC(c2ccccc2)OC1,T/C,[1],104 % of control
same,T/C,"dose: 100.0 mg/kg/injection, schedule: Q01DX009 (ip), vehicle: Klucel (hydroxypropylcellulose) (HPC)",120 % of control
same,T/C,[2],104 % of control
same,T/C,"dose: 200.0 mg/kg/injection, schedule: Q01DX009 (ip), vehicle: Klucel (hydroxypropylcellulose) (HPC)",110 % of control
same,T/C,[3],100 % of control
same,T/C,"dose: 400.0 mg/kg/injection, schedule: Q01DX009 (ip), vehicle: Klucel (hydroxypropylcellulose) (HPC)",115 % of control
CC(C#N)(Nc1ccccc1)c1ccco1 (stereo not drawn),T/C,"dose: 6.25 mg/kg/injection, schedule: Q04DX003 (ip), vehicle: other",100 % of control
same,T/C,"dose: 12.5 mg/kg/injection, schedule: Q04DX003 (ip), vehicle: other",100 % of control
same,T/C,"dose: 25.0 mg/kg/injection, schedule: Q04DX003 (ip), vehicle: other",100 % of control
N#Cc1sc2ccccc2c1CBr,T/C,[4],104 % of control
same,T/C,"dose: 18.75 mg/kg/injection, schedule: Q04DX003 (ip), vehicle: Klucel (hydroxypropylcellulose) (HPC)",108 % of control
same,T/C,[5],108 % of control
same,T/C,"dose: 37.5 mg/kg/injection, schedule: Q04DX003 (ip), vehicle: Klucel (hydroxypropylcellulose) (HPC)",108 % of control
C/C(=C\c1ccccc1)C(C)(C)C(=O)O,T/C,[6],102 % of control
same,T/C,[7],96 % of control
same,T/C,[8],99 % of control
COc1c(C#N)c2c(c(OC)c1OC)-c1ccc(OC)c(=O)cc1[C@@H](NC(C)=O)CC2,T/C,"dose: 6.25 mg/kg/injection, schedule: Q01DX009 (ip), vehicle: Klucel (hydroxypropylcellulose) (HPC)",119 % of control
CC1(C)COC(c2ccccc2)=N1,T/C,"dose: 100.0 mg/kg/injection, schedule: Q01DX001 (ip), vehicle: saline sonified",100 % of control
same,T/C,"dose: 200.0 mg/kg/injection, schedule: Q01DX001 (ip), vehicle: saline sonified",100 % of control
same,T/C,"dose: 400.0 mg/kg/injection, schedule: Q01DX001 (ip), vehicle: saline sonified",110 % of control
O=[N+]([O-])c1ccc(S(=O)(=O)Nc2ccccc2-c2ccccc2)cc1,T/C,[9],96 % of control
same,T/C,[10],96 % of control
same,T/C,[11],100 % of control
CC(=O)OCC(CCn1ccc(=O)[nH]c1=O)COC(C)=O,T/C,[7],90 % of control
same,T/C,[9],98 % of control
same,T/C,[8],100 % of control
same,T/C,[10],98 % of control
same,T/C,"dose: 400.0 mg/kg/injection, schedule: Q01DX009 (ip), vehicle: saline with Tween-80",90 % of control
same,T/C,[11],100 % of control
CCC1CN2CCc3cc(O)c(O)cc3C2CC1CC1NCCc2c1[nH]c1ccc(O)cc21 (stereo not drawn),T/C,"dose: 1.0 mg/kg/injection, schedule: Q01DX009 (ip), vehicle: Klucel (hydroxypropylcellulose) (HPC)",161 % of control
same,T/C,"dose: 2.0 mg/kg/injection, schedule: Q01DX009 (ip), vehicle: Klucel (hydroxypropylcellulose) (HPC)",163 % of control
CC1(C(Cl)(Cl)Cl)C=CC(=O)C=C1,T/C,"dose: 6.25 mg/kg/injection, schedule: Q01DX009 (ip), vehicle: saline with Tween-80",110 % of control
same,T/C,"dose: 12.5 mg/kg/injection, schedule: Q01DX009 (ip), vehicle: saline with Tween-80",115 % of control
same,T/C,[12],98 % of control
same,T/C,[6],107 % of control
[NH2-].[NH2-].[NH2-].[NH2-].[NH2-].[NH2-].[Ni],T/C,"dose: 6.25 mg/kg/injection, schedule: Q01DX001 (ip), vehicle: saline",99 % of control
same,T/C,"dose: 12.5 mg/kg/injection, schedule: Q01DX001 (ip), vehicle: saline",103 % of control
COc1ccc(C2=NNC(=O)OC2c2ccccc2)cc1 (stereo not drawn),T/C,[12],92 % of control and 102 % of control
same,T/C,[6],91 % of control and 96 % of control and 99 % of control
same,T/C,[7],100 % of control and 110 % of control
same,T/C,[8],91 % of control and 102 % of control and 105 % of control
CNc1n[n+](-c2ccccc2)no1,T/C,"dose: 3.12 mg/kg/injection, schedule: Q01DX009 (ip), vehicle: saline",115 % of control
same,T/C,"dose: 6.25 mg/kg/injection, schedule: Q01DX009 (ip), vehicle: saline",101 % of control and 120 % of control
same,T/C,"dose: 6.25 mg/kg/injection, schedule: Q04DX003 (ip), vehicle: saline",102 % of control
same,T/C,"dose: 12.5 mg/kg/injection, schedule: Q04DX003 (ip), vehicle: saline",96 % of control
same,T/C,"dose: 25.0 mg/kg/injection, schedule: Q04DX003 (ip), vehicle: saline",104 % of control and 107 % of control
COC(=O)c1ccc(OCCOc2ccc(C(C)(C)CC(C)(C)C)cc2)c(N)c1,T/C,[1],95 % of control
same,T/C,[2],104 % of control
same,T/C,[3],100 % of control
S=C1N=C2c3ccccc3C2C(=S)S1 (stereo not drawn),T/C,[6],109 % of control
same,T/C,[7],98 % of control
same,T/C,"dose: 150.0 mg/kg/injection, schedule: Q01DX009 (ip), vehicle: saline with Tween-80",94 % of control
COc1ccc(/C=C/C(=O)c2ccc3cc(OC)c(OC)cc3c2)cc1OC,T/C,"dose: 25.0 mg/kg/injection, schedule: Q01DX009 (ip), vehicle: saline",98 % of control
same,T/C,[13],91 % of control
same,T/C,[14],87 % of control
same,T/C,[15],100 % of control
same,T/C,"dose: 400.0 mg/kg/injection, schedule: Q01DX009 (ip), vehicle: saline",91 % of control
CCC1c2ccc3cc(OC)ccc3c2CC1CC(=O)O (stereo not drawn),T/C,"dose: 100.0 mg/kg/injection, schedule: Q01DX001 (ip), vehicle: other",100 % of control
same,T/C,"dose: 200.0 mg/kg/injection, schedule: Q01DX001 (ip), vehicle: other",110 % of control
same,T/C,"dose: 400.0 mg/kg/injection, schedule: Q01DX001 (ip), vehicle: other",105 % of control
CC(C)CCOP(=S)(N1CC1)N1CC1,T/C,[11],177 % of control
Clc1ccc(C(Cl)(Cl)Cl)cc1Cl,T/C,[4],95 % of control
same,T/C,[5],100 % of control
same,T/C,"dose: 50.0 mg/kg/injection, schedule: Q01DX009 (ip), vehicle: Klucel (hydroxypropylcellulose) (HPC)",100 % of control
CCC(=O)/C=C/c1ccccc1,T/C,[6],93 % of control
same,T/C,[7],109 % of control
same,T/C,[8],118 % of control
ClCCN(CCCN(CCCl)c1ccccc1)c1ccccc1,T/C,"dose: 100.0 mg/kg/injection, schedule: Q01DX001 (ip), vehicle: saline + alcohol",118 % of control
same,T/C,"dose: 200.0 mg/kg/injection, schedule: Q01DX001 (ip), vehicle: saline with Tween-80",156 % of control
same,T/C,"dose: 400.0 mg/kg/injection, schedule: Q01DX001 (ip), vehicle: saline + alcohol",151 % of control
same,T/C,"dose: 400.0 mg/kg/injection, schedule: Q01DX001 (ip), vehicle: saline with Tween-80",166 % of control
same,T/C,"dose: 800.0 mg/kg/injection, schedule: Q01DX001 (ip), vehicle: saline with Tween-80",205 % of control
CC(C)(N)CCC(C)(C)NCCC#N,T/C,"dose: 50.0 mg/kg/injection, schedule: Q01DX009 (ip), vehicle: water",103 % of control
same,T/C,"dose: 100.0 mg/kg/injection, schedule: Q01DX009 (ip), vehicle: water",99 % of control
same,T/C,"dose: 100.0 mg/kg/injection, schedule: Q04DX003 (ip), vehicle: water",110 % of control
same,T/C,"dose: 200.0 mg/kg/injection, schedule: Q01DX009 (ip), vehicle: water",122 % of control
same,T/C,"dose: 200.0 mg/kg/injection, schedule: Q04DX003 (ip), vehicle: water",103 % of control
same,T/C,"dose: 400.0 mg/kg/injection, schedule: Q01DX009 (ip), vehicle: water",114 % of control
same,T/C,"dose: 400.0 mg/kg/injection, schedule: Q04DX003 (ip), vehicle: water",103 % of control
CNc1c(F)c(C#N)c(F)c(F)c1C#N,T/C,[6],119 % of control
CC(=O)OC1OC(COC(c2ccccc2)(c2ccccc2)c2ccccc2)C(OCc2ccccc2)C(OCc2ccccc2)C1OC(C)=O (stereo not drawn),T/C,"dose: 21.9 mg/kg/injection, schedule: Q01DX009 (ip), vehicle: other",95 % of control
same,T/C,"dose: 43.8 mg/kg/injection, schedule: Q01DX009 (ip), vehicle: other",98 % of control
same,T/C,"dose: 87.5 mg/kg/injection, schedule: Q01DX009 (ip), vehicle: other",93 % of control
same,T/C,"dose: 175.0 mg/kg/injection, schedule: Q01DX009 (ip), vehicle: other",88 % of control
same,T/C,"dose: 350.0 mg/kg/injection, schedule: Q01DX009 (ip), vehicle: other",88 % of control
COC(=O)C1(C)CCC(c2ccc(OC)cc2)CC1=O (stereo not drawn),T/C,[13],86 % of control
same,T/C,[14],100 % of control
same,T/C,"dose: 100.0 mg/kg/injection, schedule: Q04DX003 (ip), vehicle: saline",100 % of control
same,T/C,[15],109 % of control
same,T/C,"dose: 200.0 mg/kg/injection, schedule: Q04DX003 (ip), vehicle: saline",103 % of control
O=C(O)c1ccccc1-c1ccccc1C(=O)O,T/C,[9],95 % of control
same,T/C,[10],104 % of control
same,T/C,[11],104 % of control
